Laboratory results published in US8993574B2, “Pyrrole antifungal agents” (F2G Ltd, priority 2008, dated 2015).

How the values were obtained:
A. fumigatus A1163 [1] = experiment: Temporary (TI) neutropenic murine survival model of disseminated aspergillosis; type: in vivo, CD-1 mouse; settings: for survival at day 18: TI model with prolonged observation; for survival at day 18 / survival benefit / survival: oral; for survival benefit / survival: TI survival model
Method: (§1) Methods: Temporary (TI) or persistently (PI) neutropenic CD-1 mouse models of disseminated aspergillus were used. 3 days post immunosuppression with cyclophosphamide (200 mg/kg ip) mice were infected IV with an LD90 challenge of A. fumigatus A1163. Treatment commenced 5 h post infection and animals were treated for 9 days and observed for either 2 days or 7 days following cessation of treatment. […] 2-(1,5-Dimethyl-3-phenyl-1H-pyrrol-2-yl)-N-{4-[4-(4,6-dimethyl-pyridin-2-yl)-piperazin-1-yl]-phenyl}-2-oxo-acetamide was dosed orally as a suspension in HPMC/Tween 80 once or twice daily. Caspofungin dosed IP was used as a comparator.

[2] = test system: Aspergillus fumigatus AF210; experiment: Checkerboard titration, fractional inhibitory concentration (FIC), RPMI media; type: cell-based; settings: compound A in combination with caspofungin as compound B
Method: In the checkerboard titration doubling dilutions of compound A (e.g. an antifungal pyrrole compound as defined earlier) are prepared in every row across a microtitre plate and doubling dilutions of compound B (e.g. a second antifungal agent as defined earlier) are prepared in every column down a microtitre plate. The activity of the two compounds in combination can be compared with the activity of each compound alone. In such experiments a narrow range of dilutions can be tested for each compound around the minimum inhibitory concentration (MIC).
As an example, a stock solution of compound A (e.g. 5 mg/ml) can be prepared in a suitable solvent such as DMSO. A stock solution of compound B (e.g. caspofungin) is also prepared (e.g. 2 mg/ml). The stock solution of compound A is diluted (e.g. at a concentration of 1:2000 in water) to 2.5 μg/ml. […]
To determine the combined effect of the compounds the Fractional inhibitory concentration FIC is determined, where FIC is defined as: FIC=FICA+FICB=CA^comb/MICA^alone+CB^comb/MICB^alone where MICA^alone and MICB^alone are the MICs of compounds A and B when acting alone and CA^comb and CB^comb are concentrations of compounds A and B at the isoeffective combinations, respectively. […]

A. fumigatus A1163 [3] = experiment: Persistently (PI) neutropenic murine survival model of disseminated aspergillosis; type: in vivo, CD-1 mouse; settings: severe PI model, oral, 20 mg/kg BD
Method: as §1

[4] = test system: Aspergillus and other filamentous fungi; experiment: Activity in vitro against Aspergillus and other filamentous fungi; type: cell-based
[5] = Oral bio-availability and tissue distribution; settings: in vivo

## Cc1cc(C)nc(N2CCN(c3ccc(NC(=O)C(=O)c4c(-c5ccccc5)cc(C)n4C)cc3)CC2)c1 [Example 1, 2-(1,5-Dimethyl-3-phenyl-1H-pyrrol-2-yl)-N-{4-[4-(4,6-dimethyl-pyridin-2-yl)-piperazin-1-yl]-phenyl}-2-oxo-acetamide]
A. fumigatus A1163 [1]; 10 mg/kg BD
  survival at day 18: 80%
A. fumigatus A1163 [1]; 20 mg/kg OD
  survival at day 18: 70%
A. fumigatus A1163 [1]; 1.25 mg/kg per day
  survival benefit: little benefit
A. fumigatus A1163 [1]; 2.5 mg/kg per day
  survival benefit: little benefit
A. fumigatus A1163 [1]; 5 mg/kg per day
  survival: 80%
A. fumigatus A1163 [1]; 10 mg/kg/day
  survival: 90%
A. fumigatus A1163 [1]; 20 mg/kg/day
  survival: 100%
A. fumigatus A1163 [1]; 30 mg/kg/day
  survival: 100%
A. fumigatus A1163 [1]; 40 mg/kg/day
  survival: 100%
A. fumigatus A1163 [1]; in these models (TI and PI)
  efficacy compared with caspofungin (CAS) dosed IP: at least as effective as CAS
[2]
  FIC (fractional inhibitory concentration): 0.67
A. fumigatus A1163 [3]
  survival at day 12: 70%
[4]
  activity in vitro against Aspergillus and other filamentous fungi: excellent activity
[5]
  tissue distribution: good
[5]; po
  oral bio-availability: good
